Measurements taken from PubChem BioAssay AID1963826 (Molecular Pharmacology Branch, DTP, NCI, 2024).

System: 926638-142-R-J1-PDC complex spheroid viability
Assay: Anticancer human tumor 926638-142-R-J1-PDC patient-derived endometrial carcinoma cell line growth inhibition [POLQ]
Details: for IC50: curve of first compound; for viability, T/C: stronger effect = lower value
Protocol: Multicellular complex tumor spheroid response to Polymerase (POL) inhibitors (novobiocin, ART-558, RP6685) in combination with a variety of drugs and investigational agents in selected tumor cell lines
The POL inhibitors (novobiocin, ART-558, and RP6685) were evaluated both individually and in combination with standard of care and investigational anticancer small molecules within a complex spheroid model of solid tumors. . Complex spheroids include a stromal component modeled by human endothelial cells (HUVEC) and fibroblasts modeled by human mesenchymal stem cells (MSCs). The concentration ranges selected for each drug and investigational agent were based upon clinically achievable concentrations if the clinical Cmax of the agent was known.
Compounds. The drugs and investigational agents: novobiocin (NSC847541), ART-558 (NSC835418), RP-6685 (NSC848927), peposertib (NSC802822), ceralasertib (NSC780249), elimusertib (NSC800525), camonsertib (NSC841442), AZD-1390 (NSC803789), olaparib (NSC753686), talazoparib (NSC767125), rucaparib (NSC756644), sotorasib (NSC818433), MRTX-1133 (NSC836407), SN-38 (NSC673596), topotecan (NSC609699), epotoside (NSC141540), doxorubicin (NSC123127), gemcitabine (NSC613327), 5-fluorouracil (NSC19893), paclitaxel (NSC125973), vemurafenib (NSC761431), MSA-2 (NSC828583), SN-011 (NSC837082), adavosertib (NSC754352), prexasertib (NSC758257), carboplatin (NSC241240) and oxaliplatin (NSC266046), were obtained from the National Cancer Institute (NCI) Developmental Therapeutics Program Chemical Repository (21). The FDA-approved anticancer drug set is available from the Developmental Therapeutics Program at https://dtp.cancer.gov/organization/dscb/obtaining/. […] The stock solutions were prepared in dimethyl sulfoxide (DMSO, Sigma-Aldrich, St. Louis, MO, cat. D2650), except for the platinum compounds which were prepared in saline (Quality Biological, Gaithersburg, MD, cat. 114-055-101), at 800-fold the tested concentration and stored at -70 degrees C prior to their use. All drugs and investigational agents were tested over a range starting from a high concentration at or near the clinical Cmax and decreasing in half-log increments. If the clinical Cmax for an agent had not been determined, the highest concentration tested was 10 microM, except for SN-38, which was tested at a high concentration of 1 microM.
Cell Culture. All cells were maintained in an incubator at 37 degrees C and 5% CO2 with 95% humidity. The PDC lines were cultured according to standard operating procedures established by the NCI PDMR (https://pdmr.cancer.gov). Table 3 of the manuscript, lists the cell lines along with the number of the three cell types plated to form the mct-spheroids and media for tumor cell growth. After thawing, all PDC lines, except 997537-175-T-J1-PDC and 415267-285-R-J2-PDC, were cultured in Matrigel-coated flasks prepared with a working solution of 1X Ham's F-12 nutrient mix, without supplementation (Thermo Fisher Scientific, cat. 11765054), 100 U/mL penicillin-streptomycin (Thermo Fisher Scientific, cat. 15140122), and 2.5% Matrigel (Corning Inc., Corning, NY, cat. 354248) for the first three passages. The two PDC lines 997537-175-T-J1-PDC and 415267-285-R-J2-PDC were cultured on uncoated flasks. The 857933-349-R-J2-PDC line was cultured in 6C/Colon 1B media containing advanced DMEM/F-12 (Thermo Fisher Scientific, cat. 12634028), 10 mM HEPES (Thermo Fisher Scientific, cat. 15630080), 1X GlutaMAX supplement (Thermo Fisher Scientific, cat. 35050061), 0.1 mg/mL primocin (InvivoGen, San Diego, CA, cat. ant-pm-2), 10% defined fetal bovine serum, heat inactivated (HyClone Laboratories Inc., Logan, UT, cat. SH30070.03HI), 50% L-WRN conditioned media (ATCC, cat. CRL-3276), 1.25 mM N-Acetyl-L-cysteine (Sigma-Aldrich, cat. A9165), 10 mM nicotinamide (Sigma-Aldrich, cat. N0636), 1X B-27 supplement (Thermo Fisher Scientific, cat. 17504044), 1X N-2 supplement (Thermo Fisher Scientific, cat. […]

[1] = second compound 0.0316 µM, first compound 0.0316 µM
[2] = second compound 0.0316 µM, first compound 0.1 µM
[3] = second compound 0.0316 µM, first compound 0.316 µM
[4] = second compound 0.0316 µM, first compound 1 µM
[5] = second compound 0.0316 µM, first compound 3.16 µM
[6] = second compound 0.0316 µM, first compound 10 µM
[7] = second compound 0.1 µM, first compound 0.0316 µM
[8] = second compound 0.1 µM, first compound 0.1 µM
[9] = second compound 0.1 µM, first compound 0.316 µM
[10] = second compound 0.1 µM, first compound 1 µM
[11] = second compound 0.1 µM, first compound 3.16 µM
[12] = second compound 0.1 µM, first compound 10 µM
[13] = second compound 0.316 µM, first compound 0.0316 µM
[14] = second compound 0.316 µM, first compound 0.1 µM
[15] = second compound 0.316 µM, first compound 0.316 µM
[16] = second compound 0.316 µM, first compound 1 µM
[17] = second compound 0.316 µM, first compound 3.16 µM
[18] = second compound 0.316 µM, first compound 10 µM
[19] = second compound 1 µM, first compound 0.0316 µM
[20] = second compound 1 µM, first compound 0.1 µM
[21] = second compound 1 µM, first compound 0.316 µM
[22] = second compound 1 µM, first compound 1 µM
[23] = second compound 1 µM, first compound 3.16 µM
[24] = second compound 1 µM, first compound 10 µM
[25] = second compound 3.16 µM, first compound 0.0316 µM
[26] = second compound 3.16 µM, first compound 0.1 µM
[27] = second compound 3.16 µM, first compound 0.316 µM
[28] = second compound 3.16 µM, first compound 1 µM
[29] = second compound 3.16 µM, first compound 3.16 µM
[30] = second compound 3.16 µM, first compound 10 µM
[31] = second compound 10 µM, first compound 0.0316 µM
[32] = second compound 10 µM, first compound 0.1 µM
[33] = second compound 10 µM, first compound 0.316 µM
[34] = second compound 10 µM, first compound 1 µM
[35] = second compound 10 µM, first compound 3.16 µM
[36] = second compound 10 µM, first compound 10 µM
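Note: spheroids exposed to drugs for one week before readout.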
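Throughout, for viability, T/C: percent viability relative to DMSO vehicle control wells set as 100%.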

For `C=CC(=O)N1CCN(c2nc(=O)n(-c3c(C)ccnc3C(C)C)c3nc(-c4c(O)cccc4F)c(F)cc23)C(C)C1` (centres undefined) + Nc1ccc(C#CCN(C(=O)Cc2ncc(C(F)(F)F)cc2C(F)(F)F)c2ccc(F)cc2)nn1, the IC50 (second compound 0.0316 µM) was > 10000 nM, the IC50 (second compound 0.1 µM) was > 10000 nM and the IC50 (second compound 0.316 µM) was > 10000 nM. For the same compound, the IC50 (second compound 1 µM) was > 10000 nM, the IC50 (second compound 3.16 µM) was > 10000 nM and the IC50 (second compound 10 µM) was > 10000 nM. It also gave a viability, T/C [1] of 93.4%, a viability, T/C [2] of 106% and a viability, T/C [3] of 98.1%. The viability, T/C [4] was 92.5%, the viability, T/C [5] was 88.4% and the viability, T/C [6] was 52.5%. The viability, T/C [7] was 107%, the viability, T/C [8] was 103% and the viability, T/C [9] was 93.2%. For the same compound, the viability, T/C [10] was 86.6%, the viability, T/C [11] was 87.8% and the viability, T/C [12] was 55.8%. It also gave a viability, T/C [13] of 108%, a viability, T/C [14] of 91% and a viability, T/C [15] of 79.8%. For the same compound, the viability, T/C [16] was 90.1%, the viability, T/C [17] was 86.4% and the viability, T/C [18] was 53%. For the same compound, the viability, T/C [19] was 106%, the viability, T/C [20] was 86.8% and the viability, T/C [21] was 94.6%. The viability, T/C [22] was 82.3%, the viability, T/C [23] was 85.1% and the viability, T/C [24] was 53.5%. It also gave a viability, T/C [25] of 93%, a viability, T/C [26] of 99.7% and a viability, T/C [27] of 89.5%. It also gave a viability, T/C [28] of 93.6%, a viability, T/C [29] of 73.8% and a viability, T/C [30] of 53.8%. It also gave a viability, T/C [31] of 94.4%, a viability, T/C [32] of 98.5% and a viability, T/C [33] of 78.2%. The viability, T/C [34] was 78.7%, the viability, T/C [35] was 87% and the viability, T/C [36] was 60.4%.

In the case of `CC1COCCN1c1cc(-c2ccnn2C)c2ccnc(-c3ccn[nH]3)c2n1` (centres undefined) + Nc1ccc(C#CCN(C(=O)Cc2ncc(C(F)(F)F)cc2C(F)(F)F)c2ccc(F)cc2)nn1, the IC50 (second compound 0.0316 µM) is reported as 503 nM, the IC50 (second compound 0.1 µM) is reported as 386 nM and the IC50 (second compound 0.316 µM) is reported as 377 nM. The IC50 (second compound 1 µM) was 285 nM, the IC50 (second compound 3.16 µM) was 357 nM and the IC50 (second compound 10 µM) was 369 nM. It also gave a viability, T/C [1] of 101%, a viability, T/C [2] of 83.7% and a viability, T/C [3] of 60.3%. It also gave a viability, T/C [4] of 36.7%, a viability, T/C [5] of 14% and a viability, T/C [6] of 9.34%. The viability, T/C [7] was 108%, the viability, T/C [8] was 85.9% and the viability, T/C [9] was 50.5%. For the same compound, the viability, T/C [10] was 33.7%, the viability, T/C [11] was 14.1% and the viability, T/C [12] was 9.21%. It also gave a viability, T/C [13] of 104%, a viability, T/C [14] of 84.7% and a viability, T/C [15] of 54.5%. For the same compound, the viability, T/C [16] was 26.7%, the viability, T/C [17] was 16.8% and the viability, T/C [18] was 10.1%. It also gave a viability, T/C [19] of 99.7%, a viability, T/C [20] of 69.6% and a viability, T/C [21] of 51.7%. For the same compound, the viability, T/C [22] was 27.5%, the viability, T/C [23] was 14.3% and the viability, T/C [24] was 9.7%. The viability, T/C [25] was 89.8%, the viability, T/C [26] was 73.6% and the viability, T/C [27] was 53.9%. It also gave a viability, T/C [28] of 28.6%, a viability, T/C [29] of 16.7% and a viability, T/C [30] of 8.56%. It also gave a viability, T/C [31] of 73.3%, a viability, T/C [32] of 74.5% and a viability, T/C [33] of 52.5%. It also gave a viability, T/C [34] of 25.7%, a viability, T/C [35] of 15.1% and a viability, T/C [36] of 9.63%.
